Measured values from publication PMC11156899, “High-throughput screening unveils nitazoxanide as a potent PRRSV inhibitor by targeting NMRAL1” (Nature Communications, 2024).

Columns and labels:
[1] = pig, in vivo, po
Procedure: Blood samples were collected from the anterior vena cava for complete blood count using a PE-6800VET analyzer (Prokan) and biochemical analysis using a VetTest Plasma Chemistry Analyzer (IDEXX). Reference ranges were obtained from Iowa State University College of Veterinary Medicine (https://vetmed.iastate.edu/vpath/services/diagnostic-services/clinical-pathology/testing-and-fees/reference-intervals). IHC were performed as previously described, involving 24-h incubation with SR30 antibody (1:400) and subsequent treatment with HRP-labeled secondary antibody.
Supplementary Fig. 6: Complete Blood Counts and Biochemical Analysis.
Six animals from the same enclosure were divided into three groups (n = 2) and fed different doses of NTZ twice daily for three
consecutive days, with a 12-hour interval. Parameters measured included White Blood Cell (WBC) counts, Lymphocyte (LYM)
percentages, Monocyte (MONO) counts, Neutrophil (NEU) counts, Red Blood Cell (RBC) counts, Hemoglobin (HGB)
concentration, Mean Corpuscular Hemoglobin (MCH), Mean Corpuscular Hemoglobin Concentration (MCHC), Platelet (PLT)
counts, Albumin (ALB) concentration, Total Protein (TP) concentration, Glucose (GLU) levels, Alkaline Phosphatase (ALP)
levels, Total Bilirubin (TBIL) levels, and Blood Urea Nitrogen (BUN) concentration. The grey areas in each panel represent the
reference ranges for these indices.

Nsp1α = assay: Differential scanning fluorimetry, purified Nsp1α; assay type: binding, PRRSV GSWW-18 strain; settings: DSF
Procedure: (§1) For DSF, 20 μM purified NSP1α and NSP12 protein from the GSWW-18 strain, as well as NMRAL1 protein (Accession: A0A0D9R9W0) was thoroughly mixed with 20 μM SYPRO Orange (S6650, Thermo) in a buffer containing 10 mM HEPES and 200 mM NaCl at pH 7.20. An equal volume of 100 μM NTZ, dissolved in the same buffer, was added and the mixture was filtered through a 0.22 μm filter. For controls, an equivalent volume of DMSO was used. […] DSF experiments were monitored using the QuantStudio™ 5 Real-Time PCR System (Thermo). Data were analyzed using DSFworld[42].
Supplementary Fig. 10: The Affinity of Nsp1α and Nsp12 with TIZ is Lower Than That of NMRAL1.
(a) The KD value of NMRAL1 obtained through the Affinity fit model.
(b) The KD value of Nsp1α determined using the Kinetics fit model.
(c) The KD value of Nsp1α obtained through the Affinity fit model.

NSP12 = assay: In vitro binding (DSF/CETSA) of NSP12 purified by inclusion bodies; parameters: species or system PRRSV GSWW-18 strain; settings: NSP12 purified by IBs, different buffer systems
Procedure: as §1
'FT' is the flow-through after passing through the Ni column. 'Ni-200' and 'Ni-500' represent different purification conditions with varying concentrations. 'L2' is the total cell lysate after changing the expression conditions. 'S2' is the supernatant after cell lysis with changed expression conditions. The portions highlighted in red boxes indicate the target protein. […]
constant (KD) between Nsp1α and TIZ is lower than that of NMRAL1. We observe that […]
attempting different systems (Fig. R5 e-h). Although SPR confirms the interaction […]
possibly be attributed to the abnormal protein conformation of NSP12 purified by IBs. […]
(b) The KD value of Nsp1α determined using the Kinetics fit model. […]
(I) The KD value of Nsp12 determined using the Kinetics fit model. […]

PRRSV GSWW-15 = assay: EC50 against GSWW-15 strain on PAM cells; assay type: cell-based; settings: Porcine reproductive and respiratory syndrome virus
Excerpt: Supplementary Fig. 3: Cytotoxicity and Antiviral Efficacy of NTZ.
PRRSV capsid protein positive
(primary antibody SR30, green) and nuclei (DAPI, blue).

PRRSV VR-2332 = assay: Time-of-addition and lifecycle-stage experiments in Marc-145 cells; assay type: cell-based, Porcine Reproductive and Respiratory Syndrome Virus
Excerpt: The pronounced antiviral phenotype led us to explore the mechanism behind NTZ’s inhibition of PRRSV proliferation. We adopted a classic approach of administering the drug at various time points to study NTZ’s effect on the PRRSV lifecycle (Supplementary Fig. 9a). […] Identifying the target protein of NTZ became imperative. Using the isothermal shift assay (iTSA), we discovered 26 potential NTZ targets (Fig. 5a). Further, Cellular Thermal Shift Assay-Western Blot (CETSA-WB) temperature range (TR) experiment indicated Glycine amidinotransferase mitochondrial (GATM), NMRAL1, and PRRSV proteins NSP1α and NSP12 as potential NTZ targets (Fig. 5b, c). The compound concentration range (CCR) experiment also supported these four proteins as potential NTZ targets (Fig. 5d).
Supplementary Fig. 9: NTZ Inhibition of PRRSV Replication Stages.
(a) Schematic of the classic experimental approach of adding the drug at different time points. […]
(c) Viral inactivation (dark purple): PRRSV was pre-incubated with the compound for 1 hour in the incubator before transferring to monolayer Marc-145 cells, followed by medium change after 2 hours. […] All samples were collected and analyzed at 48 […]
hours. […] NS indicates P > 0.0332, calculated via two-way ANOVA with Dunnett’s multiple-comparison test (b and c); P-values < 0.0332 were considered significant.

SMILES: CC(=O)Oc1ccccc1C(=O)Nc1ncc([N+](=O)[O-])s1 [Nitazoxanide]
- adverse reactions (hematology, biochemical indices, clinical activity) [1]: No adverse reactions
- decrease in the Tm value (Nsp1α): 3.75 °C
- binding activity with NSP12 in vitro (NSP12): did not exhibit binding activity
- EC50 (PRRSV GSWW-15): ~1170 nM
- PRRSV proliferation, late addition (PRRSV VR-2332; added 16 h post viral inoculation): significantly inhibited PRRSV proliferation
- stage of PRRSV lifecycle affected (PRRSV VR-2332; adsorption, entry, replication, release): primarily affects PRRSV replication
